{"source": "paper PMC9851200", "about": "“Multiparameter phenotypic screening for endogenous TFEB and TFE3 translocation identifies novel chemical series modulating lysosome function” (Autophagy, 2022)", "conditions_in_all_cases": "PKIS2 primary screening", "key": {"SH-SY5Y cells [1]": {"tested_on": "SH-SY5Y cells", "excerpt": "The PKIS2 Library was supplied by The Structural Genomics Consortium at the University of North Carolina at Chapel Hill."}, "SH-SY5Y cells [2]": {"tested_on": "SH-SY5Y cells", "assay": "AK (adenylate kinase) release ToxiLight cytotoxicity assay; further: reference of the scale not given here"}, "endogenous TFEB": {"tested_on": "endogenous TFEB", "assay": "TFEB nuclear translocation, immunocytochemistry high-content imaging", "format": "cell-based"}, "SH-SY5Y cells [3]": {"tested_on": "SH-SY5Y cells", "assay": "Nuclear count from microscopy images (cellular growth and toxicity); further: reference of the scale not given here"}, "endogenous TFE3": {"tested_on": "endogenous TFE3", "assay": "TFE3 nuclear translocation, immunocytochemistry high-content imaging", "format": "cell-based"}}, "note": "Where two headings read alike, the source gives them in different places. Wherever DQ Intensity is given: reference of the scale not given here. Wherever DQ Spot is given: reference of the scale not given here."}
{"compound": "Cc1cc(-c2ccc3c(c2)CC[C@@H](N[C@@H](C)c2ccccc2)C3)cnc1N", "note": "[GW412617]", "values": [{"measurement": "DQ Intensity", "setting": "SH-SY5Y cells [1]; DQ Red BSA intensity", "value": 86.08}, {"measurement": "DQ Spot", "setting": "SH-SY5Y cells [1]; DQ Red BSA spot count", "value": 45.16}, {"measurement": "AK", "setting": "SH-SY5Y cells [2]", "value": 35.11}, {"measurement": "TFEB %", "setting": "endogenous TFEB", "value": 15.77, "unit": "%"}, {"measurement": "Nuclear Count", "setting": "SH-SY5Y cells [3]", "value": 101.83}, {"measurement": "TFE3 %", "setting": "endogenous TFE3", "value": 41.99, "unit": "%"}]}
{"compound": "Cc1ccc(NC(=O)Nc2ccc(Cl)cc2)cc1-c1ccc(C(=O)Nc2ccncc2)cc1", "note": "[UNC10225388A]", "values": [{"measurement": "DQ Intensity", "setting": "SH-SY5Y cells [1]", "value": 98.78}, {"measurement": "DQ Spot", "setting": "SH-SY5Y cells [1]", "value": 97.95}, {"measurement": "AK", "setting": "SH-SY5Y cells [2]", "value": 83.48}, {"measurement": "TFEB %", "setting": "endogenous TFEB", "value": 7.90, "unit": "%"}, {"measurement": "Nuclear Count", "setting": "SH-SY5Y cells [3]", "value": 82.28}, {"measurement": "TFE3 %", "setting": "endogenous TFE3", "value": 28.63, "unit": "%"}]}
{"compound": "COc1cc(Nc2nccc(-c3c(-c4cccc(NC(=O)c5c(F)cccc5F)c4)nn4ncccc34)n2)cc(OC)c1OC", "note": "[UNC10225433A]", "values": [{"measurement": "DQ Intensity", "setting": "SH-SY5Y cells [1]", "value": 122.13}, {"measurement": "DQ Spot", "setting": "SH-SY5Y cells [1]", "value": 59.34}, {"measurement": "AK", "setting": "SH-SY5Y cells [2]", "value": 102.19}, {"measurement": "TFEB %", "setting": "endogenous TFEB", "value": 23.04, "unit": "%"}, {"measurement": "Nuclear Count", "setting": "SH-SY5Y cells [3]", "value": 35.61}, {"measurement": "TFE3 %", "setting": "endogenous TFE3", "value": 17.61, "unit": "%"}]}
{"compound": "Nc1nc(-c2ccc3c(N)n[nH]c3c2)cc(N2CCCC(NC(=O)c3ccccc3)C2)n1", "note": "(stereo not drawn) [GSK2286775]", "values": [{"measurement": "DQ Intensity", "setting": "SH-SY5Y cells [1]; DQ Red BSA intensity", "value": 67.10}, {"measurement": "DQ Spot", "setting": "SH-SY5Y cells [1]; DQ Red BSA spot count", "value": 83.48}, {"measurement": "AK", "setting": "SH-SY5Y cells [2]", "value": 119.49}, {"measurement": "TFEB %", "setting": "endogenous TFEB", "value": 4.25, "unit": "%"}, {"measurement": "Nuclear Count", "setting": "SH-SY5Y cells [3]", "value": 104.24}, {"measurement": "TFE3 %", "setting": "endogenous TFE3", "value": 13.75, "unit": "%"}]}
{"compound": "CN(C)CCNS(=O)(=O)c1ccc(-c2ccnc3[nH]ccc23)cc1", "note": "[UNC10225452A]", "values": [{"measurement": "DQ Intensity", "setting": "SH-SY5Y cells [1]; DQ Red BSA intensity", "value": 125.57}, {"measurement": "DQ Spot", "setting": "SH-SY5Y cells [1]; DQ Red BSA spot count", "value": 113.31}, {"measurement": "AK", "setting": "SH-SY5Y cells [2]", "value": 114.11}, {"measurement": "TFEB %", "setting": "endogenous TFEB", "value": 4.89, "unit": "%"}, {"measurement": "Nuclear Count", "setting": "SH-SY5Y cells [3]", "value": 78.72}, {"measurement": "TFE3 %", "setting": "endogenous TFE3", "value": 16.94, "unit": "%"}]}
{"compound": "Nc1ncnc2occ(-c3ccc4c(c3)CCN4C(=O)Cc3cc(F)ccc3F)c12", "note": "[UNC10225000A]", "values": [{"measurement": "DQ Intensity", "setting": "SH-SY5Y cells [1]; DQ Red BSA intensity", "value": 134.29}, {"measurement": "DQ Spot", "setting": "SH-SY5Y cells [1]; DQ Red BSA spot count", "value": 108.59}, {"measurement": "AK", "setting": "SH-SY5Y cells [2]", "value": 111.48}, {"measurement": "TFEB %", "setting": "endogenous TFEB", "value": 2.84, "unit": "%"}, {"measurement": "Nuclear Count", "setting": "SH-SY5Y cells [3]", "value": 124.09}, {"measurement": "TFE3 %", "setting": "endogenous TFE3", "value": 4.51, "unit": "%"}]}
{"compound": "[2H]C([2H])(c1cccc(C(F)(F)F)c1C)n1ccn2c(=O)nc(N3CCOCC3)cc12", "note": "[UNC10243860A]", "values": [{"measurement": "DQ Intensity", "setting": "SH-SY5Y cells [1]", "value": 104.50}, {"measurement": "DQ Spot", "setting": "SH-SY5Y cells [1]", "value": 118.55}, {"measurement": "AK", "setting": "SH-SY5Y cells [2]", "value": 87.88}, {"measurement": "TFEB %", "setting": "endogenous TFEB", "value": 4.33, "unit": "%"}, {"measurement": "Nuclear Count", "setting": "SH-SY5Y cells [3]", "value": 110.69}, {"measurement": "TFE3 %", "setting": "endogenous TFE3", "value": 12.75, "unit": "%"}]}
{"compound": "Cl.c1ccc(Cn2cnc3cc(Nc4ncnc5ccccc45)ccc32)cc1", "note": "[UNC10225378A]", "values": [{"measurement": "DQ Intensity", "setting": "SH-SY5Y cells [1]; DQ Red BSA intensity", "value": 110.75}, {"measurement": "DQ Spot", "setting": "SH-SY5Y cells [1]; DQ Red BSA spot count", "value": 119.25}, {"measurement": "AK", "setting": "SH-SY5Y cells [2]", "value": 86.98}, {"measurement": "TFEB %", "setting": "endogenous TFEB", "value": 2.97, "unit": "%"}, {"measurement": "Nuclear Count", "setting": "SH-SY5Y cells [3]", "value": 84.68}, {"measurement": "TFE3 %", "setting": "endogenous TFE3", "value": 16.85, "unit": "%"}]}
{"compound": "COC(=O)Nc1nc2ccc(Oc3ccc(NC(=O)Nc4cc(C(F)(F)F)ccc4F)cc3)cc2n1C", "note": "[GW692089]", "values": [{"measurement": "DQ Intensity", "setting": "SH-SY5Y cells [1]; DQ Red BSA intensity", "value": 156.96}, {"measurement": "DQ Spot", "setting": "SH-SY5Y cells [1]; DQ Red BSA spot count", "value": 122.99}, {"measurement": "AK", "setting": "SH-SY5Y cells [2]", "value": 128.42}, {"measurement": "TFEB %", "setting": "endogenous TFEB", "value": 7.12, "unit": "%"}, {"measurement": "Nuclear Count", "setting": "SH-SY5Y cells [3]", "value": 60.83}, {"measurement": "TFE3 %", "setting": "endogenous TFE3", "value": 18.60, "unit": "%"}]}
{"compound": "Cc1ccc2c(-c3ccncc3)c(-c3ccc(F)cc3)nn2c1.Cl", "note": "[UNC10225321A]", "values": [{"measurement": "DQ Intensity", "setting": "SH-SY5Y cells [1]; DQ Red BSA intensity", "value": 88.59}, {"measurement": "DQ Spot", "setting": "SH-SY5Y cells [1]; DQ Red BSA spot count", "value": 94.42}, {"measurement": "AK", "setting": "SH-SY5Y cells [2]", "value": 67.03}, {"measurement": "TFEB %", "setting": "endogenous TFEB", "value": 3.59, "unit": "%"}, {"measurement": "Nuclear Count", "setting": "SH-SY5Y cells [3]", "value": 114.41}, {"measurement": "TFE3 %", "setting": "endogenous TFE3", "value": 14.14, "unit": "%"}]}
{"compound": "NCCNS(=O)(=O)c1ccc(-c2ccnc3[nH]ccc23)cc1", "note": "[UNC10225023B]", "values": [{"measurement": "DQ Intensity", "setting": "SH-SY5Y cells [1]; DQ Red BSA intensity", "value": 110.40}, {"measurement": "DQ Spot", "setting": "SH-SY5Y cells [1]; DQ Red BSA spot count", "value": 102.49}, {"measurement": "AK", "setting": "SH-SY5Y cells [2]", "value": 72.23}, {"measurement": "TFEB %", "setting": "endogenous TFEB", "value": 3.92, "unit": "%"}, {"measurement": "Nuclear Count", "setting": "SH-SY5Y cells [3]", "value": 135.88}, {"measurement": "TFE3 %", "setting": "endogenous TFE3", "value": 14.03, "unit": "%"}]}
{"compound": "O=C(Nc1n[nH]c2cc(-c3ccco3)ccc12)C1CC1", "note": "[SB-737447]", "values": [{"measurement": "DQ Intensity", "setting": "SH-SY5Y cells [1]; DQ Red BSA intensity", "value": 79.02}, {"measurement": "DQ Spot", "setting": "SH-SY5Y cells [1]; DQ Red BSA spot count", "value": 97.06}, {"measurement": "AK", "setting": "SH-SY5Y cells [2]", "value": 119.40}, {"measurement": "TFEB %", "setting": "endogenous TFEB", "value": 10.40, "unit": "%"}, {"measurement": "Nuclear Count", "setting": "SH-SY5Y cells [3]", "value": 114.46}, {"measurement": "TFE3 %", "setting": "endogenous TFE3", "value": 9.47, "unit": "%"}]}
{"compound": "CSc1nn2c(=O)cc(N3CCOCC3)nc2n1Cc1cccc(Cl)c1Cl", "note": "[UNC10225435A]", "values": [{"measurement": "DQ Intensity", "setting": "SH-SY5Y cells [1]", "value": 59.30}, {"measurement": "DQ Spot", "setting": "SH-SY5Y cells [1]", "value": 119.93}, {"measurement": "AK", "setting": "SH-SY5Y cells [2]", "value": 85.33}, {"measurement": "TFEB %", "setting": "endogenous TFEB", "value": 4.09, "unit": "%"}, {"measurement": "Nuclear Count", "setting": "SH-SY5Y cells [3]", "value": 99.93}, {"measurement": "TFE3 %", "setting": "endogenous TFE3", "value": 19.82, "unit": "%"}]}
{"compound": "COc1cc(Nc2nccc(N3CCC(NC(=O)c4cccc(C#N)c4)C3)n2)cc(OC)c1OC", "note": "(stereo not drawn) [GSK1379751]", "values": [{"measurement": "DQ Intensity", "setting": "SH-SY5Y cells [1]; DQ Red BSA intensity", "value": 80.41}, {"measurement": "DQ Spot", "setting": "SH-SY5Y cells [1]; DQ Red BSA spot count", "value": 103.20}, {"measurement": "AK", "setting": "SH-SY5Y cells [2]", "value": 124.29}, {"measurement": "TFEB %", "setting": "endogenous TFEB", "value": 5.62, "unit": "%"}, {"measurement": "Nuclear Count", "setting": "SH-SY5Y cells [3]", "value": 92.57}, {"measurement": "TFE3 %", "setting": "endogenous TFE3", "value": 13.31, "unit": "%"}]}
